From publication PMC7698453, “4-Benzyloxylonchocarpin and Muracatanes A-C from Ranunculus muricatus L. and Their Biological Effects” (Biomolecules, 2020) come the findings set out here.

Structures can show the parent of a compound that is named as a salt. Where two headings read alike, the source gives them in different places.

The target in data set [1] is T1, BChE (from equine serum) (Equus caballus, UniProt P81908).
T1 construct: BChE (from equine serum); purchased Merck (Darmstadt, Germany); host or cells: equine serum
T1 sequence (P81908 whole entry): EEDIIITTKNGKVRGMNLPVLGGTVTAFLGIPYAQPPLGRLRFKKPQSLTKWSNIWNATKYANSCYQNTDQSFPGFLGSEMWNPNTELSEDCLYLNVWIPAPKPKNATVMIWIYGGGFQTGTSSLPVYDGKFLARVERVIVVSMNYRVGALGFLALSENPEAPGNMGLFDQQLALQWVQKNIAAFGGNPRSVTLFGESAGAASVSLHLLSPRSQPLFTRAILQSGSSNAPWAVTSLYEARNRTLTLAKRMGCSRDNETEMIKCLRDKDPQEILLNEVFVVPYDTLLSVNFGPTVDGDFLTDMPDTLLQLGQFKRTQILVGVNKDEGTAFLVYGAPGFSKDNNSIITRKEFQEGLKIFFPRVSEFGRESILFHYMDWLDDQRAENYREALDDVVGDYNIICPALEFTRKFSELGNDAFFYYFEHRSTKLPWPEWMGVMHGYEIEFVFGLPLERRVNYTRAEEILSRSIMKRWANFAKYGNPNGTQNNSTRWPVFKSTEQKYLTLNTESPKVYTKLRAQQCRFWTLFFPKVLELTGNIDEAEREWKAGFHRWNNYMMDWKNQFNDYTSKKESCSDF
The data set is described as follows: Cholinesterase assay (Ellman's method), BChE. The following applies: for inhibition at 10 µM: read-out: BChE % Inhibition. It counts as biochemical. The protocol: (§1) A solution of tris(hydroxymethyl)-aminomethane (606 mg) in twice-distilled water (100 mL) was adjusted to a pH of 8.0 ± 0.1 with HCl to get a 50 mM Tris-HCl buffer solution. The AChE solution holding 2.005 U/mL was prepared by dissolving the enzyme (271 U/mg, 0.037 mg) in freshly prepared buffer pH 8.0 (5 mL) comprising extra NaN3 (0.98 mg), and for the BChE solution with the concentration of 2.040 U/mL: the enzyme (7.54 U/mg, 1.353 mg) was dissolved in freshly prepared buffer pH 8.0 (5 mL) comprising NaN3 (0.98 mg). The DTNB solution with the concentration of 3 mM was prepared by dissolving DTNB (23.8 mg) in buffer pH 8.0 (20 mL) and this was followed by the addition of MgCl2 (38.0 mg) and NaCl (116.8 mg). The ATChI solution with the concentration of 15 mM was prepared by dissolving ATChI (43.4 mg) in twice-distilled water (10 mL). Furthermore, all solutions were stored in Eppendorf tubes in the refrigerator or freezer. […] The final concentrations for the enzymatic assays were obtained by diluting the stock solution with twice-distilled water.
(§2) A mixture of the tested natural product solutions (25 µL, 3 different concentrations and one blank), DTNB solution (125 μL) and enzyme solution (25 μL, AChE or BChE) was incubated at 30 °C for 20 min in 96-well microplates followed by the addition of the substrate (25 μL, at 4 different concentrations). The final substrate concentrations were as follows: [ATChI] = 0.9375 mM, 0.625 mM, […], and 0.1875 mM. Moreover, the absorbance (λ = 415 nm) was measured at 30 °C for 30 min at 1 min intervals. […] Ki and Ki’ were deduced from Lineweaver–Burk, Dixon, and Cornish–Bowden plots as well as the mode of inhibtion. The relative inhibition was deduced as the quotient of the slopes (compound divided by blank) of the linear ranges. The concentration of each compound was 10 µM while the concentration was ATChI = 0.625 mM.
(DTNB colorimetry detects thiols as they appear.)

In data set [2] the target is T2, α-Glucosidase type I (EC 3.2.1.20 from Saccharomyces cerevisiae) (Saccharomyces cerevisiae, UniProt P53341).
T2 construct: purchased Sigma-Aldrich (St. Louis, MO, USA)
T2 sequence (P53341 whole entry): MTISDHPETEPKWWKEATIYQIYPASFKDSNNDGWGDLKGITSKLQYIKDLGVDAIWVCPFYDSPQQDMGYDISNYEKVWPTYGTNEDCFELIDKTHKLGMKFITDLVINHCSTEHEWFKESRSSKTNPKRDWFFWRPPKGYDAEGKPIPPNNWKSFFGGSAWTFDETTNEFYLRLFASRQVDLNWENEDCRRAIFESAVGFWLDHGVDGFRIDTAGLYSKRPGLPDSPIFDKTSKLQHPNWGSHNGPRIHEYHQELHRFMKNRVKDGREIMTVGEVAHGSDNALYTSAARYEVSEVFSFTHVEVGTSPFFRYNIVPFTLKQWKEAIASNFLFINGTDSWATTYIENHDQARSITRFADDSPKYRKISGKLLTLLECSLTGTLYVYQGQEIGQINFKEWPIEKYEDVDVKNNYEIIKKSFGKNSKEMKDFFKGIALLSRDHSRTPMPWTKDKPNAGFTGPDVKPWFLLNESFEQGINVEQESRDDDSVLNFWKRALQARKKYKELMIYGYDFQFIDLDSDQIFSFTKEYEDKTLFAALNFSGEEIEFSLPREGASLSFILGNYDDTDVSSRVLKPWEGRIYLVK
The data set is described as follows: α-Glucosidase assay (p-NPG substrate). It counts as biochemical. The following applies: for inhibition at 10 µM: at concentration of 10 µM. As for the experimental part:
The α-glucosidase assay was applied to pure natural product 3 according to the protocol described by Schmidt and co-workers. In short, the assays were performed in 96-well microplates using a Multiskan FC microplate photometer (Thermo Fisher Scientific, Waltham, MA, USA) controlled by SkanIt 2.5.1 software (Thermo Fisher Scientific, Waltham, MA, USA) with final volumes of 200 µL in each well. A phosphate buffer (100 mM) was prepared by dissolving 2.65 g sodium dihydrogen phosphate dihydrate, 4.70 g disodium hydrogen phosphate, and 0.10 g sodium azide in 500 mL Milli-Q water and adjusting the pH to 7.5. […] The microplate was shaken for 2 min, and incubated for 10 min at 28 °C. Then, 20 µL of p-NPG substrate (10 mM, 60.2 mg in 20 mL buffer) was added to each well to initiate the reaction. The enzyme activity (expressed as cleavage rate ΔAU/s) was determined by measuring the absorbance at 405 nm every 30 s for 35 min, and percentage inhibition was calculated according to the equation: Percent inhibition=Slope(blank)−Slope(sample)/Slope(blank)× 100% where slopeblank is the enzyme activity of the wells containing buffer, enzyme, and substrate and slopesample is the enzyme activity in the wells containing buffer, enzyme, substrate, and sample.

Data set [3] in a line: Sulforhodamine B cytotoxicity assay, A2780. It counts as cell-based. As to conditions: human, A2780 ovarian carcinoma cells; SRB assay, tested 1-30 µM. The protocol: (§3) The cytotoxicity of the natural products was screened by using the sulforhodamine-B (Kiton Red S, ABCR, Karlsruhe, Germany) in micro culture colorimetric assay using 96-well plates with the seeding of the cells on day 0 applying appropriate cell densities to prevent confluence of the cells during the period of the experiment. On day 1, the cells were treated with six different concentrations (1, 3, 7, 12, 20 and 30 µM); thereby, the final concentration of DMSO was always ≤ 0.5%, generally regarded as non-toxic to the cells. On day 4, the supernatant medium was discarded; the cells were fixed with 10 % trichloroacetic acid. After another day at 4 °C, the cells were washed in a strip washer and dyed with the SRB solution (100 µL, 0.4% in 1% acetic acid) for about 20 min and this was followed by washing of the plates (four times, 1% acetic acid) and air-drying overnight. Furthermore, tris base solution (200 µL, 10 mM) was added to each well and absorbance was measured at λ = 570 nm employing a reader (96 wells, Tecan Spectra, Crailsheim, Germany).
A general note: In SRB staining, fixed cells bind dye roughly in proportion to their protein.

The nature of data set [4]: Sulforhodamine B cytotoxicity assay, HT29. The following applies: human, HT29 colorectal adenocarcinoma cells; SRB assay, tested 1-30 µM. It is filed as cell-based. As for the experimental part: as §3
A short description of data set [5]: Sulforhodamine B cytotoxicity assay, MCF7. It counts as cell-based. The following applies: human, MCF7 breast cancer cells; SRB assay, tested 1-30 µM. As for the experimental part:
as §3

Data set [6] can be described thus: Sulforhodamine B cytotoxicity assay, SW1736. It is filed as cell-based. As to conditions: human, SW1736 thyroid carcinoma cells; SRB assay, tested 1-30 µM. The protocol:
as §3

Data set [7] can be described thus: Sulforhodamine B cytotoxicity assay, FaDu. It is filed as cell-based. As to conditions: human, FaDu pharynx carcinoma cells; SRB assay, tested 1-30 µM. The protocol: as §3
The target of data set [8] is T3, AChE (from Electrophorus electricus) (Electrophorus electricus, UniProt O42275).
T3 construct: purchased Merck (Darmstadt, Germany)
T3 sequence (O42275 24-633): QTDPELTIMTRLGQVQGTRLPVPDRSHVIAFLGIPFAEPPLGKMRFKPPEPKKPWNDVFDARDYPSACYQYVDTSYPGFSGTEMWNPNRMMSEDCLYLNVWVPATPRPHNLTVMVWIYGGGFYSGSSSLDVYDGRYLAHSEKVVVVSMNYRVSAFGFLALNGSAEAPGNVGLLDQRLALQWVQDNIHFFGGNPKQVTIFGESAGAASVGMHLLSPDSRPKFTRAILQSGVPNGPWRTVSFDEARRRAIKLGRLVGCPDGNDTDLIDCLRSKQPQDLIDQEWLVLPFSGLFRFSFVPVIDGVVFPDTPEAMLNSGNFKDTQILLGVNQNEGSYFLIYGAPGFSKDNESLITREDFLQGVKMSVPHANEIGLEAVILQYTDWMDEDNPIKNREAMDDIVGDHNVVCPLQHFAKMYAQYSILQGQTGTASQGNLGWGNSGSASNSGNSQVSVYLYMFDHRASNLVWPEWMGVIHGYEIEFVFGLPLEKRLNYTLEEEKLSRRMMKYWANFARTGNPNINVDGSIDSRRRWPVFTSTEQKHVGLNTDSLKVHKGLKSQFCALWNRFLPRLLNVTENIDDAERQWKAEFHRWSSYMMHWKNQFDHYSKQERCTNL
The data set is described as follows: biochemical. It counts as biochemical. As to conditions: for inhibition at 10 µM: at concentration of 10 µM, ATChI 0.625 mM. The protocol:
as §1, §2

Setting [9] is: Ki' (mixed-mode inhibition), from Lineweaver–Burk, Dixon and Cornish–Bowden plots.

The term inhibition denotes how much of the control response was suppressed. Regarding `COc1ccc2c3c1O[C@H]1C[C@@H](O)C=C[C@@]31CCN(C)C2` [GH, Galantamine hydrobromide, reference compound], in data set [1], the inhibition at 10 µM amounted to 54.8%. Besides, in data set [1] (results not shown), the “mode of inhibition of BChE” value was “competitive inhibitor”.

One may read the IC50 as the concentration that inhibits the measured activity by half. A lower IC50 goes with inhibition by little substance. For the compound `O=C1c2ccc(O)cc2C(=O)c2c(O)ccc(O)c21` [Compound 3, 1,4,6-trihydroxyanthracene-9,10-dione], the IC50 in data set [2] was 164 ± 83 µM. In data set [2], this compound displayed an inhibition at 10 µM of 80.4%. Also, the IC50 at 3 days in data set [3], in data set [4], in data set [5], in data set [6] and in data set [7] was more than 30 µM throughout.

In data set [2], `COC(=O)C(Cc1ccc2c(c1OC)C(=O)c1cccc(OC)c1C2=O)C(=O)OC` [Compound 2, dimethyl 2-((1,5-dimethoxy-9,10-dioxo-9,10-dihydroanthracen-2-yl)methyl)malonate] yielded an inhibition at 10 µM of 13.4%. For the same compound, the IC50 at 3 days in data set [3], in data set [4], in data set [5], in data set [6] and in data set [7] was more than 30 µM in each case.

As to `COc1ccc(/C=C/C(=O)c2ccc3c(c2O)C=CC(C)(C)O3)cc1` [Compound 5, 4-methoxylonchocarpin], the results for the inhibition at 10 µM in data set [8], in data set [1] (at concentration of 10 µM) and in data set [2] were 49.9%, 8.7% and 36.1%, respectively. Moreover, the IC50 at 3 days in data set [3] was 25.4 µM; in data set [4] it was 20.2 µM; in data set [5], 23.7 µM; in data set [6], 26.2 µM; in data set [7], more than 30 µM.

One may read the Ki as a measure of affinity in units of concentration, obtained from inhibition or displacement. Higher therefore signals weaker binding. `CC1(C)C=Cc2c(ccc(C(=O)/C=C/c3ccc(OCc4ccccc4)cc3)c2O)O1` [Compound 1, (E)-3-(4-(benzyloxy)phenyl)-1-(5-hydroxy-2,2-dimethyl-2H-chromen-6-yl)prop-2-en-1-one]: the “mode of inhibition of AChE” value in data set [8] was “mixed-mode type inhibitor”. Moreover, in data set [8] (setting [9]), the “AChE Ki'” value is on record as 3.54 ± 0.24 µM. In addition, the Ki in data set [8] (setting [9]) worked out at 3.54 µM; in data set [8] (from Lineweaver–Burk, Dixon and Cornish–Bowden plots), 5.39 ± 0.51 µM. In addition, the inhibition at 10 µM in data set [8] is 97.4%; in data set [1] (at concentration of 10 µM) it was 27.3%. Moreover, the IC50 at 3 days in data set [3], in data set [4], in data set [5], in data set [6] and in data set [7] was more than 30 µM throughout.
